Results reported in patent US6864217B2, “Herbicidal compositions with substituted phenylsulfonylureas for controlling weeds in rice” (Hoechst Schering AgrEvo GmbH, priority 1998, dated 2005).

Assays:
ECHCO = test: Table 2 field trial, treatment at the 2-3 leaf stage weed grasses: weed control; type: in vivo, Echinochloa colona; settings: 28 days after application
Protocol: (§6) The examples mentioned below were carried out in the greenhouse, and in some instances, in field trials.

Eleusine indica = test: as above; type: in vivo; settings: 28 days after application
Protocol: as §6

Leptochloa filiformis = test: Table 2a field trial, treatment at the 2-3 leaf stage weed grasses: weed control; type: in vivo; settings: 28 days after application
Protocol: as §6

Cyperus irria = test: Table 3 field trial, treatment at the 2 leaf stage weed grasses: weed control; type: in vivo; settings: 28 days after application
Protocol: as §6

Echinochloa crusgalli [1] = test: Table 18 field trial, treatment at the 1-2 leaf stage: weed control; type: in vivo; settings: 14 days after application
From the text: (§1) Field trial: Treatment at the 1-2 leaf stage, evaluation 14 days after the application.

Oryza sativa [2] = test: Table 18 field trial, treatment at the 1-2 leaf stage: rice damage; type: in vivo; settings: 14 days after application
From the text: as §1

Oryza sativa [3] = test: Table 2 field trial, treatment at the 1-2 leaf stage rice: rice damage; settings: 28 days after application
Protocol: as §6

Oryza sativa [4] = test: Table 2a field trial, treatment at the 1-2 leaf stage rice: rice damage; settings: 28 days after application
Protocol: as §6

Oryza sativa [5] = test: Table 3 field trial, treatment at the 4-5 leaf stage (seed rice): rice damage; settings: 28 days after application
Protocol: as §6

Sagittaria pygmaea [6] = test: Table 14 greenhouse trial, treatment at the 3-4 leaf stage: weed control; type: in vivo; settings: 21 days after application
Protocol: (§2) Seeds or rhizome pieces of mono- and dicotyledonous weed plants are placed into sandy loam soil in plastic pots, covered with soil and grown in a greenhouse under good growth conditions (temperature, atmospheric humidity, water supply). Weeds which are encountered in the cultivation of rice are cultivated in pots in which the water level is up to 2 cm over the soil surface. Three weeks after sowing, the test plants are treated at the three-leaf stage. The active compound combinations according to the invention, formulated as wettable powders or emulsion concentrates, and, in parallel experiments, the correspondingly formulated individual active compounds are sprayed onto the green parts of the plants at different dosages using an amount of water of 300 to 600 l/ha (converted), and, after about 3 to 4 weeks of the test plants in the greenhouse under optimum growth conditions (temperature, atmospheric humidity, water supply), the effect of the preparations is evaluated visually in comparison to untreated controls. In the case of rice or weeds which are encountered in the cultivation of rice, the active compounds are also added directly to the water for irrigation (application analogous to the so-called granules application) or sprayed onto plants and added to the water for irrigation. The experiments were designed with several, up to five, repetitions. The herbicidal compositions according to the invention also have good herbicidal post-emergence activity against a broad spectrum of economically important weed grasses and broad-leaved weeds.
(§3) Greenhouse trial: Treatment at the 3-4 leaf stage, evaluation 21 days after the application.

Oryza sativa [7] = test: Table 14 greenhouse trial, treatment at the 3-4 leaf stage: rice damage; type: in vivo; settings: 21 days after application
Protocol: as §2, §3

Scirpus maritimus = test: Table 15 greenhouse trial, treatment at the 2-3 leaf stage: weed control; type: in vivo; settings: 20 days after application
Protocol: as §2

Oryza sativa [8] = test: Table 15 greenhouse trial, treatment at the 2-3 leaf stage: rice damage; type: in vivo; settings: 20 days after application
Protocol: as §2

Sagittaria pygmaea [9] = test: Table 13 greenhouse trial, treatment at the 5-6 leaf stage: weed control; type: in vivo; settings: 20 days after application
Protocol: as §2
(§4) Greenhouse trial: Treatment at the 5-6 leaf stage, evaluation 20 days after the application.

Oryza sativa [10] = test: Table 13 greenhouse trial, treatment at the 5-6 leaf stage: rice damage; type: in vivo; settings: 20 days after application
Protocol: as §2, §4

Echinochloa crusgalli [11] = test: Table 5 field trial, treatment at the 2-4 leaf stage rice: weed control; type: in vivo; settings: evaluation after 28 days
Protocol: as §6

Oryza sativa [12] = test: Table 5 field trial, treatment at the 2-4 leaf stage rice: rice damage; type: in vivo; settings: evaluation after 28 days
Protocol: as §6

Scirpus juncoides = test: Table 10 greenhouse trial, treatment at the 1-2 leaf stage: weed control; type: in vivo; settings: 20 days after application
Protocol: as §2
(§5) Greenhouse trial: Treatment at the 1-2 leaf stage, evaluation 20 days after the application.

Oryza sativa [13] = test: Table 10 greenhouse trial, treatment at the 1-2 leaf stage: rice damage; type: in vivo; settings: greenhouse trial, 20 days after application
Protocol: as §2, §5

Echinochloa crusgalli [14] = test: Table 4 field trial: weed control; type: in vivo
Protocol: as §6

Oryza sativa [15] = test: Table 4 field trial: rice damage
Protocol: as §6

## CCOc1ccccc1OS(=O)(=O)NC(=O)Nc1nc(OC)cc(OC)n1 [B63a), ethoxysulfuron]
ECHCO; 45 g of ai/ha
  ECHCO % control: 0%
ECHCO; 60 g of ai/ha
  ECHCO % control: 0%
Eleusine indica; 45 g of ai/ha
  ELEIN % control: 0%
Eleusine indica; 60 g of ai/ha
  ELEIN % control: 0%
Leptochloa filiformis; 45 g of ai/ha
  LEFFI % control: 0%
Leptochloa filiformis; 60 g of ai/ha
  LEFFI % control: 0%
Cyperus irria; 22.5 g of ai/ha
  CYPIR % control: 60%
Cyperus irria; 45 g of ai/ha
  CYPIR % control: 95%
Echinochloa crusgalli [1]; 5 g of ai/ha
  ECHCG % control: 7%
Echinochloa crusgalli [1]; 10 g of ai/ha
  ECHCG % control: 7%
Oryza sativa [2]; 5 g of ai/ha
  ORYSW % damage: 7%
Oryza sativa [2]; 10 g of ai/ha
  ORYSW % damage: 7%
Oryza sativa [3]; 45 g of ai/ha
  ORYSW % damage: 10%
Oryza sativa [3]; 60 g of ai/ha
  ORYSW % damage: 10%
Oryza sativa [4]; 45 g of ai/ha
  ORYSW % damage: 10%
Oryza sativa [4]; 60 g of ai/ha
  ORYSW % damage: 10%
Oryza sativa [5]; 22.5 g of ai/ha
  ORYSW % damage: 0%
Oryza sativa [5]; 45 g of ai/ha
  ORYSW % damage: 0%

## CCCOCCN(C(=O)CCl)c1c(CC)cccc1CC [B4), 2-chloro-N-(2,6-diethylphenyl)-N-(2-propoxyethyl)acetamide]
Sagittaria pygmaea [6]; 125 g of ai/ha
  SAGPY % control: 65%
Sagittaria pygmaea [6]; 250 g of ai/ha
  SAGPY % control: 70%
Sagittaria pygmaea [6]; 500 g of ai/ha
  SAGPY % control: 75%
Oryza sativa [7]; 125 g of ai/ha
  ORYSW % damage: 15%
Oryza sativa [7]; 250 g of ai/ha
  ORYSW % damage: 15%
Oryza sativa [7]; 500 g of ai/ha
  ORYSW % damage: 35%

## COc1cc(OC)nc(NC(=O)NS(=O)(=O)c2c(-c3nnn(C)n3)cnn2C)n1 [B64), azimsulfuron]
Scirpus maritimus; 5 g of ai/ha
  SCIMA % control: 78%
Scirpus maritimus; 9 g of ai/ha
  SCIMA % control: 80%
Scirpus maritimus; 18 g of ai/ha
  SCIMA % control: 83%
Scirpus maritimus; 37 g of ai/ha
  SCIMA % control: 85%
Oryza sativa [8]; 5 g of ai/ha
  ORYSW % damage: 3%
Oryza sativa [8]; 9 g of ai/ha
  ORYSW % damage: 8%
Oryza sativa [8]; 18 g of ai/ha
  ORYSW % damage: 10%
Oryza sativa [8]; 37 g of ai/ha
  ORYSW % damage: 10%

## CCN(C(=O)n1nnn(-c2ccccc2Cl)c1=O)C1CCCCC1 [B17), 4-(2-chlorophenyl)-5-oxo-4,5-dihydro-tetrazole-1-carboxylic acid cyclohexyl-ethyl-amide]
Sagittaria pygmaea [9]; 50 g of ai/ha
  SAGPY % control: 0%
Sagittaria pygmaea [9]; 100 g of ai/ha
  SAGPY % control: 40%
Sagittaria pygmaea [9]; 200 g of ai/ha
  SAGPY % control: 80%
Oryza sativa [10]; 50 g of ai/ha
  ORYSW % damage: 0%
Oryza sativa [10]; 100 g of ai/ha
  ORYSW % damage: 0%
Oryza sativa [10]; 200 g of ai/ha
  ORYSW % damage: 0%

## COP(=S)(OC)SCC(=O)N(c1ccc(Cl)cc1)C(C)C [B19), S-[2-[(4-chlorophenyl)(1-methylethyl)amino]-2-oxo-ethyl]O,O-dimethylphosphorodithioate]
Echinochloa crusgalli [11]; 250 g of ai/ha
  ECHCG % control: 30%
Echinochloa crusgalli [11]; 500 g of ai/ha
  ECHCG % control: 40%
Oryza sativa [12]; 250 g of ai/ha
  ORYSW % damage: 2%
Oryza sativa [12]; 500 g of ai/ha
  ORYSW % damage: 10%

## COc1cc(OC)nc(NC(=O)NS(=O)(=O)c2c(C(=O)O)cnn2C)n1 [B59), 5-[[[[(4,6-dimethoxy-2-pyrimidinyl)amino]carbonyl]-amino]sulfonyl]-1-methyl-1H-pyrazol-4-carboxylic acid]
Scirpus juncoides; 7.5 g of ai/ha
  SCIJU % control: 50%
Scirpus juncoides; 15 g of ai/ha
  SCIJU % control: 55%
Scirpus juncoides; 30 g of ai/ha
  SCIJU % control: 60%
Oryza sativa [13]; 7.5 g of ai/ha
  ORYSW % damage: 0%
Oryza sativa [13]; 15 g of ai/ha
  ORYSW % damage: 0%
Oryza sativa [13]; 30 g of ai/ha
  ORYSW % damage: 2%

## C[C@@H](Oc1ccc(Oc2nc3ccc(Cl)cc3o2)cc1)C(=O)O [B20), (R)-2-[4-(6-chloro-1,3-benzoxazol-2-yloxy)phenoxy]-propionic acid]
Echinochloa crusgalli [14]; 10 g of ai/ha
  ECHCG % control: 0%
Echinochloa crusgalli [14]; 20 g of ai/ha
  ECHCG % control: 0%
Echinochloa crusgalli [1]; 30 g of ai/ha
  ECHCG % control: 75%
Oryza sativa [2]; 30 g of ai/ha
  ORYSW % damage: 0%
Oryza sativa [15]; 10 g of ai/ha
  ORYSW % damage: 0%
Oryza sativa [15]; 20 g of ai/ha
  ORYSW % damage: 0%
